Data on 68 compounds can be found in paper PMC5363571 (Oncotarget, 2016).

Molecules are shown by their SMILES. Where a name gives a salt, the structure may show the parent alone.

The target of this test is USP7 (Homo sapiens, UniProt Q93009). Nature of the test: biochemical. More on the design: Ub-AMC hydrolysis by recombinant USP7 (20 nM), 30 min pre-incubation, fluorescence read-out. As to conditions: read-out: % Inhibition at 50 μM.
Chain of USP7 (Q93009 whole entry): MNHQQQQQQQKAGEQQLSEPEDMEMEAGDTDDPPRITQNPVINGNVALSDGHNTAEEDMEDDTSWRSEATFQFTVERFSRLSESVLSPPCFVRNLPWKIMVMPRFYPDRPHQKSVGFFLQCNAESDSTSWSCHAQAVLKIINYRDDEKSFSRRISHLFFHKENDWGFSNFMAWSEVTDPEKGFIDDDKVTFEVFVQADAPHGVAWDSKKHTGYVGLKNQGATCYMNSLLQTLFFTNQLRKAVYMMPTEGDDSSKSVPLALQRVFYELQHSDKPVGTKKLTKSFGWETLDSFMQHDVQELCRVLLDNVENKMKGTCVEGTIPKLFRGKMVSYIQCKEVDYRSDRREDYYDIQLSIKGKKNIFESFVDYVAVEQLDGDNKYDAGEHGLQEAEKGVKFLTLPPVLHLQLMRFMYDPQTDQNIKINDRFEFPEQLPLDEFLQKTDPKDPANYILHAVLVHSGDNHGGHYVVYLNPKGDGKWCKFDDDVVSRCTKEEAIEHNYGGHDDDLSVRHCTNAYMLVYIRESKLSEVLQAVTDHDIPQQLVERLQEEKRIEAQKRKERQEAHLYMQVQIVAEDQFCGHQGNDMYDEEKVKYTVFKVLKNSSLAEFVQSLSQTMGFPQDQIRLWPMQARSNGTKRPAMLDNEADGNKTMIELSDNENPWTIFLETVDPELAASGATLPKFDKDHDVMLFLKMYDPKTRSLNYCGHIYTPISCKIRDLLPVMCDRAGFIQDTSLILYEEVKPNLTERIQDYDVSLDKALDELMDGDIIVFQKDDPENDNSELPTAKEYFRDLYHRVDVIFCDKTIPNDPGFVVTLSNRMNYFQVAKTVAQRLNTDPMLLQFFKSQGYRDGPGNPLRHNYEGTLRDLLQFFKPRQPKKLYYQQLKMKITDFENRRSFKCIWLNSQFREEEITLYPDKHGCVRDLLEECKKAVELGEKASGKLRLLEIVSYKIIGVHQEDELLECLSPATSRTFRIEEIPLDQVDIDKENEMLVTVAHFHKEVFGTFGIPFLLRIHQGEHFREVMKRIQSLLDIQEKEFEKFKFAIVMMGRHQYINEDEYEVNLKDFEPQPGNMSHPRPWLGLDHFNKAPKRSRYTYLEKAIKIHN
Regarding `C[C@]12C[C@H](O)[C@H]3[C@@H](CCC4=CC(=O)CC[C@@]43C)[C@@H]1CC[C@@H]2C(=O)CO` [Corticosterone], the inhibition at 50 µM is less than 5%.

In the case of `CC=CC(=O)N(CC)c1ccccc1C` [Crotamiton], the inhibition at 50 µM was less than 5%.

With `N=c1ccn2c(n1)O[C@H]1[C@H](O)[C@@H](CO)O[C@H]12` [Cyclocytidine HCl], the inhibition at 50 µM came to 29.5%.

As to `CN1CCC(=C2c3ccccc3C=Cc3ccccc32)CC1` [Cyproheptadine], the inhibition at 50 µM is less than 5%.

In the case of `CC(=O)O[C@]1(C(C)=O)CC[C@H]2[C@@H]3C=C(Cl)C4=CC(=O)[C@@H]5C[C@@H]5[C@]4(C)[C@H]3CC[C@@]21C` [Cyproterone acetate], the inhibition at 50 µM was 28.6%.

Consider `Nc1ccn([C@@H]2O[C@H](CO)[C@@H](O)[C@@H]2O)c(=O)n1` [Cytarabine], for which the inhibition at 50 µM is less than 5%.

For the compound `CN(C)/N=N/c1[nH]cnc1C(N)=O` [Dacarbazine], the inhibition at 50 µM was less than 5%.

As for `C#C[C@]1(O)CC[C@H]2[C@@H]3CCC4=Cc5oncc5C[C@]4(C)[C@H]3CC[C@@]21C` [Danazol], the inhibition at 50 µM is less than 5%.

Take `COc1cccc2c1C(=O)c1c(O)c3c(c(O)c1C2=O)C[C@@](O)(C(C)=O)C[C@@H]3O[C@H]1C[C@H](N)[C@H](O)[C@H](C)O1` [Daunorubicin HCl]: the inhibition at 50 µM is less than 5%.

For `C[N+](C)(C)CCCCCCCCCC[N+](C)(C)C` [Decamethonium 2Br], the inhibition at 50 µM was less than 5%.

For `C[C@]12CC[C@H](O)CC1=CC[C@@H]1[C@@H]2CC[C@]2(C)C(=O)CC[C@@H]12` [Dehydroepiandrosterone], the inhibition at 50 µM is less than 5%.

Take `CC(C)Nc1cccnc1N1CCN(C(=O)c2cc3cc(NS(C)(=O)=O)ccc3[nH]2)CC1` [Delavirdine mesylate]: the inhibition at 50 µM was less than 5%.

`CCCCn1c(=O)c2c(ncn2CC(C)=O)n(CCCC)c1=O` [Denbufylline]: the inhibition at 50 µM was less than 5%.

As for `C#CCN(C)C(C)Cc1ccccc1` (centres unmarked) [Deprenyl], the inhibition at 50 µM is less than 5%.

Regarding `COc1ccc2c(c1)[C@]13CCCC[C@@H]1[C@H](C2)N(C)CC3` [Dextromethorphan HBr], the inhibition at 50 µM came out at 41.3%.

Take `O=C(O)Cc1ccccc1Nc1c(Cl)cccc1Cl` [Diclofenac, Na]: the inhibition at 50 µM is less than 5%.

For the compound `O=c1[nH]cnc2c1ncn2[C@H]1CC[C@@H](CO)O1` [Didanosine], the inhibition at 50 µM was less than 5%.

As to `CC/C(=C(/CC)c1ccc(O)cc1)c1ccc(O)cc1` [Diethylstilbestrol], the inhibition at 50 µM was found to be 30.6%.

For the compound `O=C(O)c1cc(-c2ccc(F)cc2F)ccc1O` [Diflunisal], the inhibition at 50 µM was found to be 31.5%.

Take `CCCCC[C@H](O)/C=C/[C@@H]1[C@@H](C/C=C\CCCC(=O)O)[C@@H](O)C[C@H]1O` [Dinoprost]: the inhibition at 50 µM was less than 5%.

In the case of `CCCCC[C@H](O)/C=C/[C@H]1[C@H](O)CC(=O)[C@@H]1C/C=C\CCCC(=O)O` [Dinoprostone], the inhibition at 50 µM amounted to 6.5%.

For `CN(C)CCOC(c1ccccc1)c1ccccc1` [Diphenhydramine HCl], the inhibition at 50 µM is less than 5%.

Turning to `CCN(CC)C(=S)SSC(=S)N(CC)CC` [Disulfiram], the inhibition at 50 µM is less than 5%.

Turning to `CC(CCc1ccc(O)cc1)NCCc1ccc(O)c(O)c1` (centres unmarked) [Dobutamine HCl], the inhibition at 50 µM was less than 5%.

Take `CC1=C(C)C(=O)C(CCCCC#CCCCC#CCO)=C(C)C1=O` [Docebenone]: the inhibition at 50 µM is less than 5%.

`CC(=O)O[C@@]12CO[C@@H]1C[C@H](O)[C@@]1(C)C(=O)[C@H](O)C3=C(C)[C@@H](OC(=O)[C@H](O)[C@@H](NC(=O)OC(C)(C)C)c4ccccc4)C[C@@](O)([C@@H](OC(=O)c4ccccc4)[C@H]21)C3(C)C` [Docetaxil]: the inhibition at 50 µM was less than 5%.

Regarding `CN(CCOc1ccc(NS(C)(=O)=O)cc1)CCc1ccc(NS(C)(=O)=O)cc1` [Dofetilide], the inhibition at 50 µM is less than 5%.

With `O=C(O[C@@H]1C[C@@H]2C[C@H]3C[C@H](C1)N2CC3=O)c1c[nH]c2ccccc12` [Dolasetron], the inhibition at 50 µM is less than 5%.

Consider `O=c1[nH]c2ccccc2n1CCCN1CCC(n2c(=O)[nH]c3cc(Cl)ccc32)CC1` [Domperidone], for which the inhibition at 50 µM is less than 5%.

On to `COc1cc2c(cc1OC)C(=O)C(CC1CCN(Cc3ccccc3)CC1)C2` (centres unmarked) [Donepezil HCl], for which the inhibition at 50 µM is less than 5%.

As to `CCN[C@H]1C[C@H](C)S(=O)(=O)c2sc(S(N)(=O)=O)cc21` [Dorzolamide], the inhibition at 50 µM was less than 5%.

Turning to `COc1cc2nc(N3CCN(C(=O)C4COc5ccccc5O4)CC3)nc(N)c2cc1OC` (centres unmarked) [Doxazosin mesylate], the inhibition at 50 µM was less than 5%.

As to `C[C@H]1O[C@@H](n2cc(F)c(=O)[nH]c2=O)[C@H](O)[C@@H]1O` [Doxifluridine], the inhibition at 50 µM was less than 5%.

Turning to `Cn1c(=O)c2c(ncn2CC2OCCO2)n(C)c1=O` [Doxofylline], the inhibition at 50 µM was less than 5%.

Regarding `COc1cccc2c1C(=O)c1c(O)c3c(c(O)c1C2=O)C[C@@](O)(C(=O)CO)C[C@@H]3O[C@H]1C[C@H](N)[C@H](O)[C@H](C)O1` [Doxorubicin HCl], the inhibition at 50 µM is less than 5%.

For the compound `C[C@H]1c2cccc(O)c2C(=O)C2=C(O)[C@]3(O)C(=O)C(C(N)=O)=C(O)[C@@H](N(C)C)[C@@H]3[C@@H](O)[C@@H]21` [Doxycycline HCl], the inhibition at 50 µM was less than 5%.

As for `O=C1Nc2ccc(Cl)cc2[C@@](C#CC2CC2)(C(F)(F)F)O1` [Efavirenz], the inhibition at 50 µM is 29.8%.

With `C[C@H](N[C@@H](CCc1ccccc1)C(=O)O)C(=O)N1CCC[C@H]1C(=O)O` [Enalaprilat], the inhibition at 50 µM was less than 5%.

As to `CNC[C@H](O)c1ccc(O)c(O)c1` [Epinephrine-(+)-tartrate l (-)], the inhibition at 50 µM was less than 5%.

Regarding `CCCCc1ncc(/C=C(\Cc2cccs2)C(=O)O)n1Cc1ccc(C(=O)O)cc1` [Eprosartan], the inhibition at 50 µM was 6.2%.

For `C[N+](C)(C)[C@@H](Cc1c[nH]c(=S)[nH]1)C(=O)[O-]` [Ergothioneine], the inhibition at 50 µM is less than 5%.

Consider `C#Cc1cccc(Nc2ncnc3cc(OCCOC)c(OCCOC)cc23)c1` [Erlotinib], for which the inhibition at 50 µM is less than 5%.

With `CN(C)CCC[C@@]1(c2ccc(F)cc2)OCc2cc(C#N)ccc21` [Escitalopram], the inhibition at 50 µM is less than 5%.

As to `COC(=O)CCc1ccc(OCC(O)CNC(C)C)cc1` (centres unmarked) [Esmolol], the inhibition at 50 µM was less than 5%.

In the case of `CCOC(=O)c1cnc2c(cnn2CC)c1NN=C(C)C` [Etazolate], the inhibition at 50 µM was less than 5%.

Turning to `COc1cc([C@@H]2c3cc4c(cc3[C@@H](O[C@@H]3O[C@@H]5CO[C@@H](C)O[C@H]5[C@H](O)[C@H]3O)[C@H]3COC(=O)[C@H]23)OCO4)cc(OC)c1O` [Etoposide], the inhibition at 50 µM was less than 5%.

Turning to `C=C1C[C@@H]2[C@H](CC[C@]3(C)C(=O)CC[C@@H]23)[C@@]2(C)C=CC(=O)C=C12` [Exemestane], the inhibition at 50 µM is less than 5%.

With `NC(=O)OCC(COC(N)=O)c1ccccc1` [Felbamate], the inhibition at 50 µM is less than 5%.

For the compound `CCOC(=O)C1=C(C)NC(C)=C(C(=O)OC)C1c1cccc(Cl)c1Cl` (centres unmarked) [Felodipine], the inhibition at 50 µM was determined as 7.9%.

For the compound `O=C(NCC1CCCCN1)c1cc(OCC(F)(F)F)ccc1OCC(F)(F)F` (centres unmarked) [Flecainide], the inhibition at 50 µM was less than 5%.

Consider `O=C(O)c1ccccc1Nc1cccc(C(F)(F)F)c1` [Flufenamic acid], for which the inhibition at 50 µM is less than 5%.

With `Fc1ccc(C(c2ccc(F)cc2)N2CCN(C/C=C/c3ccccc3)CC2)cc1` [Flunarizine-2HCl], the inhibition at 50 µM is less than 5%.

Consider `OCCN1CCN(CCCN2c3ccccc3Sc3ccc(C(F)(F)F)cc32)CC1` [Fluphenazine 2HCl], for which the inhibition at 50 µM is less than 5%.

As to `O=C1NCN(c2ccccc2)C12CCN(CCCC(c1ccc(F)cc1)c1ccc(F)cc1)CC2` [Fluspirilene], the inhibition at 50 µM was less than 5%.

With `CC(C)n1c(/C=C/[C@H](O)C[C@H](O)CC(=O)O)c(-c2ccc(F)cc2)c2ccccc21` [Fluvastatin Na], the inhibition at 50 µM was less than 5%.

For the compound `CCC(=O)O[C@@H](O[P@](=O)(CCCCc1ccccc1)CC(=O)N1C[C@H](C2CCCCC2)C[C@H]1C(=O)O)C(C)C` [Fosinopril], the inhibition at 50 µM was less than 5%.

For `C[C@]12CC[C@@H]3c4ccc(O)cc4C[C@@H](CCCCCCCCC[S+]([O-])CCCC(F)(F)C(F)(F)F)[C@H]3[C@@H]1CC[C@@H]2O` (some centres unmarked) [Fulvestrant], the inhibition at 50 µM is less than 5%.

As to `CO[C@@H]1[C@H](OC(=O)/C=C/C=C/C=C/C=C/C(=O)O)CC[C@]2(CO2)[C@H]1[C@@]1(C)O[C@@H]1CC=C(C)C` [Fumagillin], the inhibition at 50 µM was less than 5%.

On to `Cc1nc2c([nH]1)c(=O)n(C)c(=O)n2Cc1ccco1` [Furafylline], for which the inhibition at 50 µM is less than 5%.

Consider `NCC1(CC(=O)O)CCCCC1` [Gabapentin], for which the inhibition at 50 µM is less than 5%.

As to `Nc1ccn([C@@H]2O[C@H](CO)[C@@H](O)C2(F)F)c(=O)n1` [Gemcitabine HCl], the inhibition at 50 µM is 21.5%.

For `C#C[C@]1(O)CC[C@H]2[C@@H]3CCC4=CC(=O)CCC4=C3C=C[C@@]21CC` [Gestrinone], the inhibition at 50 µM was less than 5%.

Consider `C[C@@H]1C(=O)O[C@H]2C[C@@]34[C@H]5C[C@@H](C(C)(C)C)[C@]36[C@@H](OC(=O)[C@@H]6O)O[C@@]4(C(=O)O5)[C@]21O` [Ginkgolide a], for which the inhibition at 50 µM is less than 5%.

As to `Cc1cnc(C(=O)NCCc2ccc(S(=O)(=O)NC(=O)NC3CCCCC3)cc2)cn1` [Glipizide], the inhibition at 50 µM is less than 5%.

Take `CC1(C)[C@@H](O)CC[C@]2(C)[C@H]3C(=O)C=C4[C@@H]5C[C@@](C)(C(=O)O)CC[C@]5(C)CC[C@@]4(C)[C@]3(C)CC[C@@H]12` [Glycyrrhetic acid]: the inhibition at 50 µM is less than 5%.

As to `CN1[C@@H]2CCC[C@H]1C[C@@H](NC(=O)c1nn(C)c3ccccc13)C2` [Granisetron], the inhibition at 50 µM is less than 5%.

As for `COc1ccccc1O` [Guaiacol], the inhibition at 50 µM is less than 5%.

Regarding `O=C(CCCN1CCC(O)(c2ccc(Cl)cc2)CC1)c1ccc(F)cc1` [Haloperidol HCl], the inhibition at 50 µM is less than 5%.

A word on the inhibition: it is how much of the control response was suppressed.
